One experiment deals with SARS-CoV-2 replicon. Briefly: microbe, parasite or virus in culture. Format: cell-based. The conditions noted are these: Severe acute respiratory syndrome coronavirus 2, Huh-7, 24 h.
For another experiment, the target named is T1, SARS-CoV-2 Mpro (Severe acute respiratory syndrome coronavirus 2, UniProt P0DTD1).
T1 construct: Mpro protein was added to the 384-well assay plate; purchased WuXi AppTec
The experiment is described as follows: In vitro anti-novel coronavirus Mpro protease activity. Format: biochemical. The conditions noted are these: 25 nM Mpro protein, 25 μM substrate. As for the experimental part: (§1) The compound was dissolved in DMSO, and diluted in a 3-fold gradient with Echo655 according to the concentration requirements for the assay to 10 concentration points. Duplicate assays were set at each concentration. The diluted solution was added to a 384-well plate. Mpro protein and substrate were diluted with assay buffer (100 mM NaCl, 20 mM Tris-HCl, 1 mM EDTA). Mpro protein was added to the 384-well assay plate, and incubated with the compound for 30 min at room temperature. Then the substrate was added. The assay concentration of Mpro protein was 25 nM, and the assay concentration of substrate was 25 μM. After incubating for 60 minutes in a 30° C. constant temperature incubator, the fluorescence signal value of Ex/Em=340 nm/490 nm was detected by microplate reader. At the same time, the background well containing the substrate and compound but not containing Mpro protein was detected as control.
as §1, with “EDTA), and” for “EDTA).”, “plate,” for “plate, and”
2) Log (agonist) vs. response—variable slope nonlinear fitting analysis was carried out on the inhibition rate data (inhibition rate %) of the compound by using GraphPad Prism software, and the IC50 value of the compound was obtained.

By EC50 is commonly meant the concentration that produces a half-maximal response. A low value points to higher potency in that assay. One may read the IC50 as the point on the concentration scale where inhibition reaches its midpoint. Lower therefore signals higher potency. For `Cn1cnc(Cc2cn(Cc3cc(F)c(F)cc3F)c(Nc3cc4cn(C)nc4cc3Cl)nc2=O)n1` [Compound 4], the response in the experiment on SARS-CoV-2 replicon was half-maximal at 66 nM (EC50). Further, the IC50 at SARS-CoV-2 Mpro was found to be 25 nM.
In turn, `Cn1cnc(Cc2cn(Cc3cc(F)c(F)c(F)c3F)c(Nc3cc4cn(C)nc4cc3Cl)nc2=O)n1` [Compound 7] gave an EC50 in the experiment with SARS-CoV-2 replicon of 82 nM. Further, at SARS-CoV-2 Mpro, the IC50 amounted to 62 nM.
For `Cn1cnc(Cc2c(F)n(Cc3cc(F)c(F)cc3F)c(Nc3cc4cn(C)nc4cc3Cl)nc2=O)n1` [Compound 8] the same measures were 58 nM and 58 nM.

Values taken from patent US20250163029A1, “PYRIDONE OR PYRIMIDONE DERIVATIVE AND APPLICATION THEREOF” (Medshine Discovery Inc., priority 2022, published 2025).
